Measured values reported in patent US12662464B2, “Degraders of cyclin-dependent kinase 12 (CDK12) and uses thereof” (DANA-FARBER CANCER INSTITUTE, INC., priority 2019, dated 2026).

Columns and labels:
CDK12 = molecular target: T1, CDK12 (Homo sapiens, UniProt Q9NYV4); test: CDK12 degradation by Western blotting; type: cell-based; settings: degradation of CDK12 at 100 nM
T1 construct: endogenous in cells; host or cells: Jurkat (human T-ALL)
Procedure: Cells treated with DMSO or with the CDK12 degraders BSJ-04-023, BSJ-04-071, BSJ-04-076, BSJ-04-077, BSJ-04-078, BSJ-04-079, and BSJ-04-100 at the indicated concentrations were collected and examined with Western blots at 6 hours.
Cells treated with DMSO or with the CDK12 degraders BSJ-04-023, BSJ-04-086, BSJ-04-089, BSJ-04-098, BSJ-04-099, and BSJ-04-100 at the indicated concentrations were collected and examined with Western blots at 6 hours.
Assays for the degradation of CDK12 by exemplary compounds of Formula (I) were conducted. The results for the assays for the degradation of CDK12 by exemplary CDK12 degrader compounds depicted in Table 1 are shown in FIGS. 1-3.

[1] = Pharmacokinetic study, single IV injection in mice; type: in vivo; settings: 2 mg/kg IV, male C57BI/6 mice, plasma
Procedure: Standard pharmacokinetic parameters were determined by administration of exemplary compound BSJ-05-063 to male C57BI/6 mice, and conducting standard pharmacokinetic studies. A single 2 mg/kg intravenous (IV) injection of compound BSJ-05-063 solution in […] DMSO/Cremophor EL® (oxirane, propane-1,2,3-triol)/water was delivered, and the pharmacokinetic parameters were evaluated. The plasma concentrations of BSJ-05-063 were reported at each of the 8 time points (5 minutes, 15 minutes, 30 minutes, 1 hours, 2 hours, 4 hours, 6 hours, and 8 hours post-dosing) are the average values from 3 test animals (male C57BI/6 mice).

CDK12, CDK13, CDK9 = test: Rescue of degradation by pre-treatment, Western blot in Jurkat and Molt 4 cells; type: cell-based, human; settings: 2 hour pre-treatment with THZ-5-31, Carfilzomib, thalidomide or MLN4924, then 250 nM for 6 hours
Procedure: FIGS. 1-3 show the degradation rescued by pre-treatment with Carlfilzomib and exemplary CDK12 irreversible inhibitor, THZ-5-31
The degradation of CDK12, CDK13, CDK9 was rescued by 2 hour pre-treatment with exemplary CDK12 inhibitor THZ-5-31, exemplary […] Carfilzomib (CFZ), thalidomide (Thal.) and MLN4924 (inhibitor of NEDD8-Activating Enzyme (NAE)) at the indicated concentrations before treatment with exemplary CDK12 inhibitor BSJ-0423 (BSJ-04-023) at 250 nM for 6 hours. BSJ-04-023 is of formula: […]

T1 sequence (Q9NYV4 whole entry): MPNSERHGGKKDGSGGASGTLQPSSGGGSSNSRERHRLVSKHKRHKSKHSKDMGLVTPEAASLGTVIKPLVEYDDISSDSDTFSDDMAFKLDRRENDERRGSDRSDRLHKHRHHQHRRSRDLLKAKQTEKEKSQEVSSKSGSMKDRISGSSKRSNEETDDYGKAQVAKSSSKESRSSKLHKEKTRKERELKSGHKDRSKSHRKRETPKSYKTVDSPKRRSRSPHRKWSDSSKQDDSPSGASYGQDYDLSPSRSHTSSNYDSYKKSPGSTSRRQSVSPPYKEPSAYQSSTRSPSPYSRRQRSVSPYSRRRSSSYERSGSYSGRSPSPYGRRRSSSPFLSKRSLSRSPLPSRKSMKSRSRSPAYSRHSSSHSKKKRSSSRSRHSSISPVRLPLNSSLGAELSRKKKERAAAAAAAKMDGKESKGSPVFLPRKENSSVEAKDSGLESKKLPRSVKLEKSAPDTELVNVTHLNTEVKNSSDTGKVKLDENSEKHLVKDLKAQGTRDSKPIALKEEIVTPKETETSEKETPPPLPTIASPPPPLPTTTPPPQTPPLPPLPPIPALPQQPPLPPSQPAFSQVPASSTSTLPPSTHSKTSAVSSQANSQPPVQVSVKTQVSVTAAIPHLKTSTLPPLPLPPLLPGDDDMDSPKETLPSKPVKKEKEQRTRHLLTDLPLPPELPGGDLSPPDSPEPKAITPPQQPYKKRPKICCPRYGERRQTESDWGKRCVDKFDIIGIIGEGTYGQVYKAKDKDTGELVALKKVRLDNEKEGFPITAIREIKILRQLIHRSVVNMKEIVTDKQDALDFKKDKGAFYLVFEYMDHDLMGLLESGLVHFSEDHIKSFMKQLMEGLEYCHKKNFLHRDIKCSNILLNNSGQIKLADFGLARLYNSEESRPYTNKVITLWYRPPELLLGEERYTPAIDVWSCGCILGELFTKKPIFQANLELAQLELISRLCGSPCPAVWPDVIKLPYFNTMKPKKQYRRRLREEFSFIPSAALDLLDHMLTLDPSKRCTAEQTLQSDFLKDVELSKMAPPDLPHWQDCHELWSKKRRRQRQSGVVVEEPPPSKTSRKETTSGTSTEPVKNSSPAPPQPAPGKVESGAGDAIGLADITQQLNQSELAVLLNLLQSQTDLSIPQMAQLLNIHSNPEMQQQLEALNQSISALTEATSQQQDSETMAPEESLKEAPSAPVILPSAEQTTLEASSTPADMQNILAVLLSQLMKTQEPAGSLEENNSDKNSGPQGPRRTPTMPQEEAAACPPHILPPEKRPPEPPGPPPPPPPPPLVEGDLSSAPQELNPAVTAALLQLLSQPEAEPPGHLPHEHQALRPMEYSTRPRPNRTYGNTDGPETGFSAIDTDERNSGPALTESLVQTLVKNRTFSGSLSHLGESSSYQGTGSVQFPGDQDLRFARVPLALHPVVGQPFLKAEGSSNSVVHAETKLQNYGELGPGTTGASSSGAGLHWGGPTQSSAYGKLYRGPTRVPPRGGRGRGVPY
T1 sequence (O75909 whole entry partner): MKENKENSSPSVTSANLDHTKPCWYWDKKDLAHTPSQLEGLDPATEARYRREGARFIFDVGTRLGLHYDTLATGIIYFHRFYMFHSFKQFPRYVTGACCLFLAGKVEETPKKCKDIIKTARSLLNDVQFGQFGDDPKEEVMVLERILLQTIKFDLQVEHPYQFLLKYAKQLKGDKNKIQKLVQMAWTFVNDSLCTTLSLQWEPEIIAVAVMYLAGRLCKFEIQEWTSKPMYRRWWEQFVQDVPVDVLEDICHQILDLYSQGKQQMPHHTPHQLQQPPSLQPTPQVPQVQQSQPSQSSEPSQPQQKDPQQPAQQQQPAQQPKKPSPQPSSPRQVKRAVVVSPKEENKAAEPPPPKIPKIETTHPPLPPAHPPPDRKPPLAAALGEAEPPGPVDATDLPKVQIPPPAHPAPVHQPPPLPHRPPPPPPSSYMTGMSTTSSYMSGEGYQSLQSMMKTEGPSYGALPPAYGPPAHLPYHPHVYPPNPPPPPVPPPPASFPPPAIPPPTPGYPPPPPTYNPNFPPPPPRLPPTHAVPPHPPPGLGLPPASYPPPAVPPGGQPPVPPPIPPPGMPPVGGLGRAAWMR

| SMILES | CDK12 degradation activity (CDK12) | further results |
| --- | --- | --- |
| O=C(COc1cccc2c1C(=O)N(C1CCC(=O)NC1=O)C2=O)NCCOCCOCCOCCN1CCC[C@@H](Nc2ncc(Cl)c(-c3c[nH]c4ccccc34)n2)C1 (stereo partly drawn) [Compound 1-5, N-(2-(2-(2-(2-((R)-3-((5-chloro-4-(1H-indol-3-yl)pyrimidin-2-yl)amino)piperidin-1-yl)ethoxy)ethoxy)ethoxy)ethyl)-2-((2-(2,6-dioxopiperidin-3-yl)-1,3-dioxoisoindolin-4-yl)oxy)acetamide] | ++ (“++” indicates 80% degradation) | – |
| O=C(COc1cccc2c1C(=O)N(C1CCC(=O)NC1=O)C2=O)NCCCCCN1CCN(c2ccc(C(=O)N3CCC[C@@H](Nc4ncc(Cl)c(-c5c[nH]c6ccccc56)n4)C3)cc2)CC1 (stereo partly drawn) [Compound 1-9, N-(5-(4-(4-((R)-3-((5-chloro-4-(1H-indol-3-yl)pyrimidin-2-yl)amino)piperidine-1-carbonyl)phenyl)piperazin-1-yl)pentyl)-2-((2-(2,6-dioxopiperidin-3-yl)-1,3-dioxoisoindolin-4-yl)oxy)acetamide] | ++ (“++” indicates 80% degradation) | – |
| O=C(COc1cccc2c1C(=O)N(C1CCC(=O)NC1=O)C2=O)NCCCN1CCN(c2ccc(C(=O)N3CCC[C@@H](Nc4ncc(Cl)c(-c5c[nH]c6ccccc56)n4)C3)cc2)CC1 (stereo partly drawn) [Compound 1-10, N-(3-(4-(4-((R)-3-((5-chloro-4-(1H-indol-3-yl)pyrimidin-2-yl)amino)piperidine-1-carbonyl)phenyl)piperazin-1-yl)propyl)-2-((2-(2,6-dioxopiperidin-3-yl)-1,3-dioxoisoindolin-4-yl)oxy)acetamide] | + (“+” indicates 60% degradation of CDK12 at 100 nM) | – |
| O=C(COc1cccc2c1C(=O)N(C1CCC(=O)NC1=O)C2=O)NCCCCCCCN1CCC(C(=O)N2CCC[C@@H](Nc3ncc(Cl)c(-c4c[nH]c5ccccc45)n3)C2)CC1 (stereo partly drawn) [Compound 1-12, N-(7-(4-((R)-3-((5-chloro-4-(1H-indol-3-yl)pyrimidin-2-yl)amino)piperidine-1-carbonyl)piperidin-1-yl)heptyl)-2-((2-(2,6-dioxopiperidin-3-yl)-1,3-dioxoisoindolin-4-yl)oxy)acetamide] | ++ (“++” indicates 80% degradation) | – |
| CC(C)S(=O)(=O)c1ccccc1Nc1nc(N[C@@H]2CCCN(CCCCCCCNC(=O)COc3cccc4c3C(=O)N(C3CCC(=O)NC3=O)C4=O)C2)ncc1Cl (stereo partly drawn) [Compound 1-14, N-(7-((R)-3-((5-chloro-4-((2-(isopropylsulfonyl)phenyl)amino)pyrimidin-2-yl)amino)piperidin-1-yl)heptyl)-2-((2-(2,6-dioxopiperidin-3-yl)-1,3-dioxoisoindolin-4-yl)oxy)acetamide] | +++ (“+++” indicates a greater than 90% degradation) | – |
| Cc1ncsc1-c1ccc([C@H](C)NC(=O)[C@@H]2C[C@@H](O)CN2C(=O)[C@@H](NC(=O)CCCCCCCCCCN2CCC[C@@H](Nc3ncc(Cl)c(Nc4ccccc4S(=O)(=O)C(C)C)n3)C2)C(C)(C)C)cc1 [Compound 1-15, (2S,4R)-1-((S)-2-(11-((R)-3-((5-chloro-4-((2-(isopropylsulfonyl)phenyl)amino)pyrimidin-2-yl)amino)piperidin-1-yl)undecanamido)-3,3-dimethylbutanoyl)-4-hydroxy-N—((S)-1-(4-(4-methylthiazol-5-yl)phenyl)ethyl)pyrrolidine-2-carboxamide] | +++ (“+++” indicates a greater than 90% degradation) | AUC % Extrap [1]: 6.27 % Extrap; AUCINF_obs [1]: 368545 ng·min/mL; Cl_obs [1]: 6.04 mL/min/kg; MRTINF_obs [1]: 2.41 h; T1/2 [1]: 2.21 h; Tmax [1]: 4.8 min; Vss_obs [1]: 0.84 L/kg |
| Cc1ncsc1-c1ccc([C@H](C)NC(=O)[C@@H]2C[C@@H](O)CN2C(=O)[C@@H](NC(=O)CCOCCOCCOCCN2CCC[C@@H](Nc3ncc(Cl)c(Nc4ccccc4S(=O)(=O)C(C)C)n3)C2)C(C)(C)C)cc1 [Compound 1-16, (2S,4R)-1-((S)-14-(tert-butyl)-1-((R)-3-((5-chloro-4-((2-(isopropylsulfonyl)phenyl)amino)pyrimidin-2-yl)amino)piperidin-1-yl)-12-oxo-3,6,9-trioxa-13-azapentadecan-15-oyl)-4-hydroxy-N—((S)-1-(4-(4-methylthiazol-5-yl)phenyl)ethyl)pyrrolidine-2-carboxamide] | +++ (“+++” indicates a greater than 90% degradation) | – |
| O=C(COc1cccc2c1C(=O)N(C1CCC(=O)NC1=O)C2=O)NCCCCCCCN1CCC[C@@H](Nc2ncc(Cl)c(-c3c[nH]c4ccccc34)n2)C1 (stereo partly drawn) [Compound I-1, N-(7-((R)-3-((5-chloro-4-(1H-indol-3-yl)pyrimidin-2-yl)amino)piperidin-1-yl)heptyl)-2-((2-(2,6-dioxopiperidin-3-yl)-1,3-dioxoisoindolin-4-yl)oxy)acetamide] | +++ (“+++” indicates a greater than 90% degradation) | degradation of CDK12, CDK13, CDK9 after pre-treatment (CDK12, CDK13, CDK9): rescued |
| O=C(COc1cccc2c1C(=O)N(C1CCC(=O)NC1=O)C2=O)NCCCCCCN1CCC[C@@H](Nc2ncc(Cl)c(-c3c[nH]c4ccccc34)n2)C1 (stereo partly drawn) [Compound I-2, N-(6-((R)-3-((5-chloro-4-(1H-indol-3-yl)pyrimidin-2-yl)amino)piperidin-1-yl)hexyl)-2-((2-(2,6-dioxopiperidin-3-yl)-1,3-dioxoisoindolin-4-yl)oxy)acetamide] | ++ (“++” indicates 80% degradation) | – |
